One assay addresses T1, rat B1R (Rattus norvegicus, UniProt P97583).
T1 construct: expressed in transfected cells; host or cells: CHO K1 cells
T1 sequence (P97583 1-337): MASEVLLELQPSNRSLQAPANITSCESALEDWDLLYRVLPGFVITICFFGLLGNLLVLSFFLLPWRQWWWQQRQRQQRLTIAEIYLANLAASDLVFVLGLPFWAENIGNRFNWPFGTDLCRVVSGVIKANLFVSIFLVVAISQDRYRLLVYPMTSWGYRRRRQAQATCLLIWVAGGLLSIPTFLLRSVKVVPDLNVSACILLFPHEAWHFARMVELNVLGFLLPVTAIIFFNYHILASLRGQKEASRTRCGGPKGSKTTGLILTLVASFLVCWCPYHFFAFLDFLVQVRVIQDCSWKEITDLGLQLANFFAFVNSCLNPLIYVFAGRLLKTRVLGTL
The assay can be described thus: FLIPR Ca2+ functional study on bradykinin receptor 1 (rB1R CHO K1 cells). In kind it is cell-based. Particulars: CHO-K1, % inhibition rat B1R at 10 μM, read-out: % inh. (rat B1R) 10 μM. The gist of the method: (§1)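 Antagonism was calculated as % of maximal inhibition of the Ca2+ rise triggered by agonist at EC80 (Lys-Des-Arg9-bradykinin for hB1R, Des-Arg9-bradykinin for rB1R), added 10-20 min after test compound (10 μM or serial dilutions for IC50) to Fluo-4-loaded transfected CHO K1 cells on FLIPR. Duplicates or triplicates, ≥2 independent runs.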

The target in another assay is T2, human B1R (Homo sapiens, UniProt P46663).
T2 construct: expressed in transfected cells; host or cells: CHO K1 cells
T2 sequence (P46663 1-353): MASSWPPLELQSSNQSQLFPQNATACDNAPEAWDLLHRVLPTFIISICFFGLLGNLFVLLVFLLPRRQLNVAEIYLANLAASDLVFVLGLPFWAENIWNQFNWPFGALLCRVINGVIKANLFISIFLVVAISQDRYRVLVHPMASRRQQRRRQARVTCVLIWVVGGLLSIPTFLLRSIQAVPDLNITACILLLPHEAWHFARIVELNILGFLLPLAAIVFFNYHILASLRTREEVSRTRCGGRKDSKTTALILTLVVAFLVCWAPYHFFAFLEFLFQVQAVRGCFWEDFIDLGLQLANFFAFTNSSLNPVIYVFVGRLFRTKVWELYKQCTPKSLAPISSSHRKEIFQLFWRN
The assay can be described thus: FLIPR Ca2+ functional study on bradykinin receptor 1 (hB1R CHO K1 cells). It is filed as cell-based. To be noted: % inhibition human B1R at 10 μM, read-out: % inh. (hum. B1R) 10 μM. The gist of the method:
as §1

Each structure is given as a SMILES string. Counter-ions that a name gives are not always drawn.

For `COc1cc(C)c(S(=O)(=O)N(CCOc2nccc(N3CCC4(CCC(N5CCC5)CC4)CC3)n2)C2CC2)c(C)c1` [Example G-015, N-[2-[[4-[9-(1-azetidinyl)-3-azaspiro[5.5]undecan-3-yl]-2-pyrimidinyl]oxy]ethyl]-N-cyclopropyl-4-methoxy-2,6-dimethylbenzenesulfonamide hydrochloride], the inhibition at 10 µM stood at 95% at rat B1R and 99% at human B1R.
The corresponding values for `COc1cc(C)c(S(=O)(=O)N(CCOc2nccc(N3CCC4(CCC(Oc5ccncc5)CC4)CC3)n2)C2CC2)c(C)c1` [Example G-016, N-cyclopropyl-4-methoxy-2,6-dimethyl-N-[2-[[4-[9-(4-pyridyloxy)-3-azaspiro[5.5]undecan-3-yl]-2-pyrimidinyl]oxy]ethyl]benzenesulfonamide] are 99% and 96%.
Take `COc1cc(C)c(S(=O)(=O)N2CCCCC2COc2nccc(N3CCN(c4ccncc4)CC3)n2)c(C)c1` (stereo not drawn) [G_CC-013, 2-[[1-(4-methoxy-2,6-dimethylphenyl)sulfonyl-2-piperidinyl]methoxy]-4-[4-(4-pyridyl)-1-piperazinyl]pyrimidine]: the inhibition at 10 µM came to 102% at rat B1R and 100% on human B1R.
As to `COc1cc(C)c(S(=O)(=O)N(CCOc2nccc(N3CCC(Oc4ccncc4)CC3)n2)C2CC2)c(C)c1` [Example G-012, N-cyclopropyl-4-methoxy-2,6-dimethyl-N-[2-[[4-[4-(4-pyridyloxy)-1-piperidinyl]-2-pyrimidinyl]oxy]ethyl]benzenesulfonamide], the figures for the inhibition at 10 µM at rat B1R and at human B1R were 97% and 99%, respectively.
`COc1cc(C)c(S(=O)(=O)N(CCN(C)c2cncc(N3CCC4(CCN(c5ccncc5)CC4)CC3)n2)C2CC2)c(C)c1` [Example I-002, N-cyclopropyl-4-methoxy-2,6-dimethyl-N-[2-[methyl-[6-(9-pyridin-4-yl-3,9-diazaspiro[5.5]undecan-3-yl)-pyrazin-2-yl]-amino]-ethyl]-benzenesulfonic acid amide]: the inhibition at 10 µM on rat B1R came to 109%; at human B1R it was 94%.
The corresponding values for `COc1cc(C)c(S(=O)(=O)N2C[C@H](F)C[C@H]2COc2nccc(N3CCC4(CCN(c5ccncc5)CC4)CC3)n2)c(C)c1` [Example G-011, 3-[2-[[(2S,4R)-4-fluoro-1-(4-methoxy-2,6-dimethylphenyl)sulfonyl-2-pyrrolidinyl]methoxy]-4-pyrimidinyl]-9-(4-pyridyl)-3,9-diazaspiro[5.5]undecane] are 99% and 99%.

The record behind these values is patent publication US8269000B2, “Substituted pyrimidine and triazine compounds” (Gruenenthal GmbH, priority 2008, dated 2012).
